Results published in patent US11661426B2, “Imidazole-containing inhibitors of ALK2 kinase” (BioCryst Pharmaceuticals, Inc., priority 2017, dated 2023).

What follows are molecules tested against ALK2 (Homo sapiens (Human), UniProt Q04771) (assay: ALK2 inhibition, LanthaScreen Eu Kinase Binding Assay (ThermoFisher Scientific / Life Technologies)). Conditions: read-out: Measured Ki (IC50) Value for Compounds: IC50.
Protocol: Biochemical assays to measure the inhibitory effects of the compounds were performed by ThermoFisher Scientific (Life Technologies). ALK2 inhibition was tested using LanthaScreen™ Eu Kinase Binding Assay screening protocol.

Chain of ALK2 (Q04771 21-509): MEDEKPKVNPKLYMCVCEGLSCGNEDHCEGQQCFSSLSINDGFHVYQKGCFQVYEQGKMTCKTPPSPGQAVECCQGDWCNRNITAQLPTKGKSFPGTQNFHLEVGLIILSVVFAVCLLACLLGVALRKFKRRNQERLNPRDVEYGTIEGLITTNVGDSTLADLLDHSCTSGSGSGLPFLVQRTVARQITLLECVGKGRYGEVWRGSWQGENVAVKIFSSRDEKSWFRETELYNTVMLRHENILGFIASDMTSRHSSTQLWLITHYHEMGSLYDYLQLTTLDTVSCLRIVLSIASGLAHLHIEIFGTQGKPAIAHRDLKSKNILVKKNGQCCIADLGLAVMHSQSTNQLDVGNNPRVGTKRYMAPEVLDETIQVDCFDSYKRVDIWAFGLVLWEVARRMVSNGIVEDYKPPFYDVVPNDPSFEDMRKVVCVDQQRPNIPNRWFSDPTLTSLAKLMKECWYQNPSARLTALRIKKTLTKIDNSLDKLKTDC

First: OC[C@@H]1CCCN1c1nc(Nc2cn(-c3cccc(O)c3O)cn2)c2cccn2n1 [Compound 424f, (S)-3-(4-((2-(2-(hydroxymethyl)pyrrolidin-1-yl)pyrrolo[2,1-f][1,2,4]triazin-4-yl)amino)-1H-imidazol-1-yl)benzene-1,2-diol]
Second: OCc1cccc(-n2cnc(Nc3nc(N4CCC[C@H]4CO)nn4cccc34)c2)c1 [Compound 434e, (S)-(1-(4-((1-(3-(hydroxymethyl)phenyl)-1H-imidazol-4-yl)amino)pyrrolo[2,1-f][1,2,4]triazin-2-yl)pyrrolidin-2-yl)methanol]
The IC50 of the first is higher: 0.1 to 1 µM for the first, < 0.1 µM for the second.

First: OC[C@@H]1CCCN1c1nc(Nc2cn(-c3ccc4c(c3)OCO4)cn2)c2cccn2n1 [Compound 425e, (S)-(1-(4-((1-(benzo[d][1,3]dioxol-5-yl)-1H-imidazol-4-yl)amino)pyrrolo[2,1-f][1,2,4]triazin-2-yl)pyrrolidin-2-yl)methanol]
Second: OC[C@@H]1CCCN1c1nc(Nc2cn(-c3ccc4c(c3)OC(F)(F)O4)cn2)c2cccn2n1 [Compound 433b, (S)-(1-(4-((1-(2,2-difluorobenzo[d][1,3]dioxol-5-yl)-1H-imidazol-4-yl)amino)pyrrolo[2,1-f][1,2,4]triazin-2-yl)pyrrolidin-2-yl)methanol]
The IC50 of the first is lower: < 0.1 µM for the first, 0.1 to 1 µM for the second.

`COc1cc(C(=O)N(C)C)cc(-n2cnc(Nc3nc(N4CCC[C@H]4CO)nn4cccc34)c2)c1` [Compound 426c, (S)-3-(4-((2-(2-(hydroxymethyl)pyrrolidin-1-yl)pyrrolo[2,1-f][1,2,4]triazin-4-yl)amino)-1H-imidazol-1-yl)-5-methoxy-N,N-dimethylbenzamide] and `CNC(=O)c1cc(OC)cc(-n2cnc(Nc3nc(N4CCC[C@H]4CO)nn4cccc34)c2)c1` [Compound 427b, (S)-3-(4-((2-(2-(hydroxymethyl)pyrrolidin-1-yl)pyrrolo[2,1-f][1,2,4]triazin-4-yl)amino)-1H-imidazol-1-yl)-5-methoxy-N-methylbenzamide] cannot be ordered by IC50: < 0.1 µM for the first, < 0.1 µM for the second.

Compared with `OC[C@@H]1CCCN1c1nc(Nc2cn(-c3ccc4c(c3)OCO4)cn2)c2ccsc2n1` [Compound 428b, (S)-(1-(4-((1-(benzo[d][1,3]dioxol-5-yl)-1H-imidazol-4-yl)amino)thieno[2,3-d]pyrimidin-2-yl)pyrrolidin-2-yl)methanol], `NC(=O)[C@@H]1CCCN1c1nc(Nc2cn(-c3ccc4c(c3)OCO4)cn2)c2ccsc2n1` [Compound 429a, (S)-1-(4-((1-(benzo[d][1,3]dioxol-5-yl)-1H-imidazol-4-yl)amino)thieno[2,3-d]pyrimidin-2-yl)pyrrolidine-2-carboxamide] is higher in IC50: < 0.1 µM for the first, 0.1 to 1 µM for the second.

`COc1cc(-n2cnc(Nc3nc(N4CCC[C@H]4CO)c4cnn(C5CCCCO5)c4n3)c2)cc(OC)c1OC` (stereo partly drawn) [Compound 430b, ((2S)-1-(1-(tetrahydro-2H-pyran-2-yl)-6-((1-(3,4,5-trimethoxyphenyl)-1H-imidazol-4-yl)amino)-1H-pyrazolo[3,4-d]pyrimidin-4-yl)pyrrolidin-2-yl)methanol] and `COc1cc(-n2cnc(Nc3nc(N4CCC[C@H]4CO)c4c(C)nn(C5CCCC5)c4n3)c2)cc(OC)c1OC` [Compound 440c, (S)-(1-(1-cyclopentyl-3-methyl-6-((1-(3,4,5-trimethoxyphenyl)-1H-imidazol-4-yl)amino)-1H-pyrazolo[3,4-d]pyrimidin-4-yl)pyrrolidin-2-yl)methanol] cannot be ordered by IC50: < 0.1 µM for the first, < 0.1 µM for the second.

Compared with `NC(=O)[C@@H]1CCCN1c1nc(Nc2cn(-c3ccc4c(c3)OC(F)(F)O4)cn2)c2ccsc2n1` [Compound 431e, (S)-1-(4-((1-(2,2-difluorobenzo[d][1,3]dioxol-5-yl)-1H-imidazol-4-yl)amino)thieno[2,3-d]pyrimidin-2-yl)pyrrolidine-2-carboxamide], `OC[C@@H]1CCCN1c1nc(Nc2cn(-c3ccc4c(c3)OC(F)(F)O4)cn2)c2ccsc2n1` [Compound 432a, (S)-(1-(4-((1-(2,2-difluorobenzo[d][1,3]dioxol-5-yl)-1H-imidazol-4-yl)amino)thieno[2,3-d]pyrimidin-2-yl)pyrrolidin-2-yl)methanol] is lower in IC50: > 1 µM for the first, 0.1 to 1 µM for the second. The second is the more potent here.

`COc1cc(-n2cnc(Nc3nc(N4CCC[C@H]4CO)c4c(C)nn([C@H]5CC[C@H](N)CC5)c4n3)c2)cc(OC)c1OC` [Compound 435e, ((S)-1-(1-((trans)-4-aminocyclohexyl)-3-methyl-6-((1-(3,4,5-trimethoxyphenyl)-1H-imidazol-4-yl)amino)-1H-pyrazolo[3,4-d]pyrimidin-4-yl)pyrrolidin-2-yl)methanol] and `COc1cc(-n2cnc(Nc3nc(N4CCC[C@H]4CO)c4c(C)nn([C@H]5CC[C@@H](O)CC5)c4n3)c2)cc(OC)c1OC` [Compound 447c, (cis)-4-(4-((S)-2-(hydroxymethyl)pyrrolidin-1-yl)-3-methyl-6-((1-(3,4,5-trimethoxyphenyl)-1H-imidazol-4-yl)amino)-1H-pyrazolo[3,4-d]pyrimidin-1-yl)cyclohexanol] cannot be ordered by IC50: < 0.1 µM for the first, < 0.1 µM for the second.

`OCc1ccc(-n2cnc(Nc3nc(N4CCC[C@H]4CO)nn4cccc34)c2)cc1` [Compound 436e, (S)-(1-(4-((1-(4-(hydroxymethyl)phenyl)-1H-imidazol-4-yl)amino)pyrrolo[2,1-f][1,2,4]triazin-2-yl)pyrrolidin-2-yl)methanol] and `Cc1cc(-n2cnc(Nc3nc(N4CCC[C@H]4CO)nn4cccc34)c2)ccn1` [Compound 437e, (S)-(1-(4-((1-(2-methylpyridin-4-yl)-1H-imidazol-4-yl)amino)pyrrolo[2,1-f][1,2,4]triazin-2-yl)pyrrolidin-2-yl)methanol] cannot be ordered by IC50: < 0.1 µM for the first, < 0.1 µM for the second.

`COc1cc(-n2cnc(Nc3nc(N4CCC[C@H]4CO)c4c(C)nn(CC5CCCCC5)c4n3)c2)cc(OC)c1OC` [Compound 438c, (S)-(1-(1-(cyclohexylmethyl)-3-methyl-6-((1-(3,4,5-trimethoxyphenyl)-1H-imidazol-4-yl)amino)-1H-pyrazolo[3,4-d]pyrimidin-4-yl)pyrrolidin-2-yl)methanol] and `COc1cc(-n2cnc(Nc3nc(N4CCC[C@H]4CO)c4c(C)nn(C5CCCCC5)c4n3)c2)cc(OC)c1OC` [Compound 439c, (S)-(1-(1-cyclohexyl-3-methyl-6-((1-(3,4,5-trimethoxyphenyl)-1H-imidazol-4-yl)amino)-1H-pyrazolo[3,4-d]pyrimidin-4-yl)pyrrolidin-2-yl)methanol] cannot be ordered by IC50: < 0.1 µM for the first, < 0.1 µM for the second.

`OC[C@@H]1CCCN1c1nc(Nc2cn(-c3ccnc4c(F)cccc34)cn2)c2cccn2n1` [Compound 441e, (S)-(1-(4-((1-(8-fluoroquinolin-4-yl)-1H-imidazol-4-yl)amino)pyrrolo[2,1-f][1,2,4]triazin-2-yl)pyrrolidin-2-yl)methanol] and `OC[C@@H]1CCCN1c1nc(Nc2cn(-c3ccnc4ccccc34)cn2)c2cccn2n1` [Compound 448e, (S)-(1-(4-((1-(quinolin-4-yl)-1H-imidazol-4-yl)amino)pyrrolo[2,1-f][1,2,4]triazin-2-yl)pyrrolidin-2-yl)methanol] cannot be ordered by IC50: < 0.1 µM for the first, < 0.1 µM for the second.

`COc1cc(-n2cnc(Nc3nc(N4CCC[C@H]4CO)c4c(C)nn(C5CCC5)c4n3)c2)cc(OC)c1OC` [Compound 442c, (S)-(1-(1-cyclobutyl-3-methyl-6-((1-(3,4,5-trimethoxyphenyl)-1H-imidazol-4-yl)amino)-1H-pyrazolo[3,4-d]pyrimidin-4-yl)pyrrolidin-2-yl)methanol] and `COc1cc(-n2cnc(Nc3nc(N4CCC[C@H]4CO)c4c(C)nn(C5CCOC5)c4n3)c2)cc(OC)c1OC` (stereo partly drawn) [Compound 446c, ((2S)-1-(3-methyl-1-(tetrahydrofuran-3-yl)-6-((1-(3,4,5-trimethoxyphenyl)-1H-imidazol-4-yl)amino)-1H-pyrazolo[3,4-d]pyrimidin-4-yl)pyrrolidin-2-yl)methanol] cannot be ordered by IC50: < 0.1 µM for the first, < 0.1 µM for the second.

`OC[C@@H]1CCCN1c1nc(Nc2cn(-c3ccnc4ccsc34)cn2)c2cccn2n1` [Compound 443e, (S)-(1-(4-((1-(thieno[3,2-b]pyridin-7-yl)-1H-imidazol-4-yl)amino)pyrrolo[2,1-f][1,2,4]triazin-2-yl)pyrrolidin-2-yl)methanol] and `OC[C@@H]1CCCN1c1nc(Nc2cn(-c3cn(C4CC4)cn3)cn2)c2cccn2n1` [Compound 449d, (S)-(1-(4-((1′-cyclopropyl-1′H-[1,4′-biimidazol]-4-yl)amino)pyrrolo[2,1-f][1,2,4]triazin-2-yl)pyrrolidin-2-yl)methanol] cannot be ordered by IC50: < 0.1 µM for the first, < 0.1 µM for the second.

`COc1cc(-n2cnc(Nc3nc(N4CCC[C@H]4CO)c4c(C)nn([C@H]5C[C@@H](N)C5)c4n3)c2)cc(OC)c1OC` [Compound 444c, ((S)-1-(1-((cis)-3-aminocyclobutyl)-3-methyl-6-((1-(3,4,5-trimethoxyphenyl)-1H-imidazol-4-yl)amino)-1H-pyrazolo[3,4-d]pyrimidin-4-yl)pyrrolidin-2-yl)methanol] and `COc1cc(-n2cnc(Nc3nc(N4CCC[C@H]4CO)c4c(C)nn([C@H]5C[C@H](N)C5)c4n3)c2)cc(OC)c1OC` [Compound 445c, ((S)-1-(1-((trans)-3-aminocyclobutyl)-3-methyl-6-((1-(3,4,5-trimethoxyphenyl)-1H-imidazol-4-yl)amino)-1H-pyrazolo[3,4-d]pyrimidin-4-yl)pyrrolidin-2-yl)methanol] cannot be ordered by IC50: < 0.1 µM for the first, < 0.1 µM for the second.

`OC[C@@H]1CCCN1c1nc(Nc2cn(-c3cn(C4CCC4)cn3)cn2)c2cccn2n1` [Compound 450d, (S)-(1-(4-((1′-cyclobutyl-1′H-[1,4′-biimidazol]-4-yl)amino)pyrrolo[2,1-f][1,2,4]triazin-2-yl)pyrrolidin-2-yl)methanol] and `OC[C@@H]1CCCN1c1nc(Nc2cn(-c3cn(C4CCCC4)cn3)cn2)c2cccn2n1` [Compound 451d, (S)-(1-(4-((1′-cyclopentyl-1′H-[1,4′-biimidazol]-4-yl)amino)pyrrolo[2,1-f][1,2,4]triazin-2-yl)pyrrolidin-2-yl)methanol] fall in the same range of IC50: 0.1 to 1 µM for the first, 0.1 to 1 µM for the second.

`OC[C@@H]1CCCN1c1nc(Nc2cn(-c3cn(C4CCCCC4)cn3)cn2)c2cccn2n1` [Compound 452d, (S)-(1-(4-((1′-cyclohexyl-1′H-[1,4′-biimidazol]-4-yl)amino)pyrrolo[2,1-f][1,2,4]triazin-2-yl)pyrrolidin-2-yl)methanol] gave an IC50 of 0.1 to 1 µM.
